Literature values as cited in patent US10493116B2, “Longevity gene expression enhancer” (Shiseido Company, Ltd., priority 2014, dated 2019).
Values belong to the compound of their own block, whether it stands above or below them.

Columns and labels:
sirtuin-1 [1] = target: T1, sirtuin-1 (Homo sapiens, UniProt Q96EB6)
T1 sequence (Q96EB6 1-747): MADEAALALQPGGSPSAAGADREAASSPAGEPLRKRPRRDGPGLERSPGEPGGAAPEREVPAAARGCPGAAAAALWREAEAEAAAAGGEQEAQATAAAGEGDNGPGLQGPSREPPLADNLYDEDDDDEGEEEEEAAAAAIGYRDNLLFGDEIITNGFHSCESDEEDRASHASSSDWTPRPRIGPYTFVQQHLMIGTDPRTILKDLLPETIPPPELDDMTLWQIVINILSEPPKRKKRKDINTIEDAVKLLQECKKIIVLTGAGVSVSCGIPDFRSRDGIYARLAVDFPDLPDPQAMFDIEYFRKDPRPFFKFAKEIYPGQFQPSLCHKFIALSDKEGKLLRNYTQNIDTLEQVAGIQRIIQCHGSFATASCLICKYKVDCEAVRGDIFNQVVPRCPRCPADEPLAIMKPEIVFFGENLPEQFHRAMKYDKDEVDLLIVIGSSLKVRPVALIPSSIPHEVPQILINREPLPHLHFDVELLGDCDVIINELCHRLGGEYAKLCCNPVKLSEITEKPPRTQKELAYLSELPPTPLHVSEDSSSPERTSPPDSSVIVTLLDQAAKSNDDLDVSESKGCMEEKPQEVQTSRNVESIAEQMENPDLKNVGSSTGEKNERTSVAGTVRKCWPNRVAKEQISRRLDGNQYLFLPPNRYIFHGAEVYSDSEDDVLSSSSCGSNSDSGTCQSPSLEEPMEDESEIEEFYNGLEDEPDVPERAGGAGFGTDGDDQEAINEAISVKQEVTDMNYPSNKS

sirtuin-1 [2] = conditions: quercetin produced from rutin in the body; J. Pharmacol. Sci., 2008, 108, 364-71

- sirtuin-1 activating effect (sirtuin-1 [1]; PLoS One, 2014, 9(2), e89166): no sirtuin-1 activating effect
Compound: O=C(/C=C/c1ccc(O)c(O)c1)O[C@@H]1C[C@](O)(C(=O)O)C[C@@H](O)[C@H]1O [chlorogenic acid]

Compound: COc1ccc([C@@H]2CC(=O)c3c(O)cc(O[C@@H]4O[C@H](CO[C@@H]5O[C@@H](C)[C@H](O)[C@@H](O)[C@H]5O)[C@@H](O)[C@H](O)[C@H]4O)cc3O2)cc1O [hesperidin]
- effect of activating sirtuin-1 (sirtuin-1 [1]; at 5 μM, Biosci. Biotechnol. Biochem., 2012, 76(4), 640-645): effect of activating sirtuin-1

Compound: O=c1c(O)c(-c2ccc(O)c(O)c2)oc2cc(O)cc(O)c12 [quercetin]
- sirtuin-1 expression inhibiting effect (sirtuin-1 [2]): sirtuin-1 expression inhibiting effect
